Square brackets hold non-standard residues; d marks the D form. Peptide text beside a SMILES is read from it. dPhe(F5) = N[C@H](Cc1c(F)c(F)c(F)c(F)c1F)C(=O)O; dBpa = N[C@H](Cc1ccc(C(=O)c2ccccc2)cc1)C(=O)O; dCha = N[C@H](CC1CCCCC1)C(=O)O
What was measured:
RAW264.7 = experiment: TNF release from macrophage cell line RAW264.7 (ELISA); format: cell-based, mouse; conditions: 0.1 or 1 μM CBP501, LPS
Protocol: The released TNF were measured by ELISA.

MIAPaCa2 = experiment: Sensitization of MIAPaCa2 to bleomycin or adriamycin (sub-G1 population, flow cytometry); format: cell-based, human; conditions: bleomycine 10 μg/ml or adriamycin 1 μg/ml, 3 hours, then 21 hours
Excerpt: FIGS. 3A and 3B Human pancreatic cancer derived cell line MIAPaCa2 treated with (FIG. 3A) bleomycin (Bleo) or (FIG. 3B) adriamycin (ADR) with various doses of compounds. Harvested cells were stained for their DNA and analyzed with flow cytometry. The % population of sub-G1 cells are indicated as dead cells.
The G2 checkpoint abrogating activity of various compounds at different doses on human pancreatic cancer derived cell line MIAPaCa2 treated with bleomycine (Bleo) or adriamycin (ADR) was studied. Briefly, cells were incubated with the compounds and bleomycine (10 μg/ml) or adriamycin (1 μg/ml) for 3 hours. The medium was changed and incubated for an additional 21 hours. Harvested cells were stained for DNA by propium iodide and analyzed with flow cytometry as previously described. The % of the sub-G1 cell population is indicated as dead cells in FIG. 3.

Jurkat cells [1] = experiment: G2 checkpoint abrogation, flow cytometry of bleomycin treated Jurkat cells; format: cell-based, human
CT26WT cells = conditions: 3 hours treatment, two days later
Protocol: Two days later, the cell cycle phase distribution (Y-axis) and cell death was analyzed by BD FACSCalibur by propidium iodide staining.
For cell cycle analysis, cells collected by trypsine/EDTA (Gibco) were stained with Krishan's buffer (0.1% sodium citrate, 50 Ag/mL propidium iodide, 20 Ag/mL RNase A, 0.5% NP40) followed by flow cytometry using FACSCalibur (Becton Dickinson).

[2] = In vivo half life in mouse serum (HPLC); conditions: 40 mg/kg ip, read-out: Half-life after 40 mg/kg intra-peritoneal injection (converted)
Jurkat cells [3] = experiment: Side effect of peptide used alone: Jurkat cell cycle disturbance (flow cytometry); format: cell-based; conditions: dose that produced Jurkat cell cycle disturbance, peptide alone
Method in brief: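 Cell-cycle profiles were obtained by flow cytometry after propidium iodide staining in Krishan's solution for 1 hr at 4 °C. The value is the peptide dose given alone that disturbed the cell cycle, seen as significant SubG1 (dead) cells or unusually variable DNA content.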

[4] = tested on: MIAPaCa2 human pancreatic carcinoma cells; experiment: Colony formation analysis of MIAPaCa2 cells; format: cell-based; conditions: CBP501 10 μmM, cisplatin or oxaliplatin 1, 3 or 9 μg/ml, three hours, then 10 days
Protocol: Briefly, cells were plated at 300 cells/well in 6 well plates, incubated overnight, and treated with the compounds for three hours. The medium was changed and cultured for an additional 10 days. Cells were subsequently fixed with 70% methanol, stained with 0.1% crystal violet and visualized.

DU-145 = experiment: G2 checkpoint abrogation by CBP501 combined with cis-platin, flow cytometry; format: cell-based; conditions: DU-145, prostate, MLH1; cis-platin 3 μg/ml 3 hr, then 45 hr
Protocol: (§1) The medium was aspirated, fresh medium without these compounds was added and the cells were incubated for an additional 45 hr. The cells including floating cells were harvested using trypsin-EDTA solution, incubated with Krishan's solution and analyzed for DNA content by flow cytometry as previously described.

MK45 = experiment: as above; format: cell-based; conditions: MK45, stomach; cis-platin 3 μg/ml 3 hr, then 45 hr
Protocol: as §1

NCI-H226 = experiment: as above; format: cell-based; conditions: NCI-H226, lung, SCC; cis-platin 3 μg/ml 3 hr, then 45 hr
Protocol: as §1

SK-OV-3 = experiment: as above; format: cell-based; conditions: SK-OV-3, ovary, hMLH1; cis-platin 3 μg/ml 3 hr, then 45 hr
Protocol: as §1

MCF-7 = experiment: as above; format: cell-based; conditions: MCF-7, mammary gland; cis-platin 3 μg/ml 3 hr, then 45 hr
Protocol: as §1

NCI-H520 = experiment: as above; format: cell-based; conditions: NCI-H520, lung, SCC; cis-platin 3 μg/ml 3 hr, then 45 hr
Protocol: as §1

HT-29 = experiment: as above; format: cell-based; conditions: HT-29, colon; cis-platin 3 μg/ml 3 hr, then 45 hr
Protocol: as §1

SW620 = experiment: as above; format: cell-based; conditions: SW620, colon; cis-platin 3 μg/ml 3 hr, then 45 hr
Protocol: as §1

HCT116 = experiment: as above; format: cell-based; conditions: HCT116, colon, hMLH1; cis-platin 3 μg/ml 3 hr, then 45 hr
Protocol: as §1

Panc1 = experiment: as above; format: cell-based; conditions: Panc1, pancreas; cis-platin 3 μg/ml 3 hr, then 45 hr
Protocol: as §1

SW900 = experiment: as above; format: cell-based; conditions: SW900, lung, SCC; cis-platin 3 μg/ml 3 hr, then 45 hr
Protocol: as §1

Jurkat cells [5] = experiment: M phase checkpoint abrogation / non specific toxicity, colchicine treated Jurkat cells; format: cell-based
[6] = tested on: CBP501-sensitive human cancer cell lines; experiment: Intracellular accumulation of CDDP; format: cell-based

Question: What does the source list for `N=C(N)NCCC[C@@H](NC(=O)[C@@H](CCCNC(=N)N)NC(=O)[C@@H](CCC(N)=O)NC(=O)[C@@H](CCCNC(=N)N)NC(=O)[C@@H](CCCNC(=N)N)NC(=O)[C@@H](CCCNC(=N)N)NC(=O)[C@@H](CC1CCCCC1)NC(=O)[C@@H](Cc1c(F)c(F)c(F)c(F)c1F)NC(=O)[C@@H](CO)NC(=O)[C@@H](Cc1c[nH]c2ccccc12)NC(=O)[C@@H](CO)NC(=O)[C@H](N)Cc1ccc(C(=O)c2ccccc2)cc1)C(=O)O` [CBP501, (d-Bpa)(d-Ser)(d-Trp)(d-Ser)(d-Phe-2,3,4,5,6-F)(d-Cha)(d-Arg)(d-Arg)(d-Arg)(d-Gln)(d-Arg)(d-Arg)] (H-[dBpa][dS][dW][dS][dPhe(F5)][dCha][dR][dR][dR][dQ][dR][dR]-OH; N-terminus and C-terminus assumed)?
Answer: Cytokine secretion (TNF release) of macrophages (RAW264.7): Inhibition of cytokine secretion; Sensitization of MIAPaCa2 cells to bleomycin and adriamycin (% sub-G1, dead cells) (MIAPaCa2): sensitized MIAPaCa2 cells to both bleomycin and adriamycin in a dose dependent manner; G2 checkpoint abrogating activity (in words) (Jurkat cells [1]; Jurkat cells with bleomycin 40 μg/ml): abrogated in a dose dependent manner; G2 abrogating dose (Jurkat cells [1]; dose with 40 μg/ml bleomycine giving detectable G2 checkpoint abrogation, 24 hours): ≥0.39 µM; Potency in changing cell cycle phase distribution, CDDP combined with CBP501 vs CDDP alone (CT26WT cells): about 2 times; half-life [2]: 3 h; Appearance of side effect when used alone (Jurkat cells [3]): >50 µM; Enhancement of cyto-toxic activity of cisplatin and oxaliplatin, colony formation [4]: enhanced the cyto-toxic activity of both cisplatin and oxaliplatin; G2 checkpoint abrogating dose of CBP501, cis-platin (DU-145): 0.4 µM; G2 checkpoint abrogating dose of CBP501, cis-platin (MK45): >10 µM; G2 checkpoint abrogating dose of CBP501, cis-platin (NCI-H226): 0.4 µM; G2 checkpoint abrogating dose of CBP501, cis-platin (SK-OV-3): 50 µM; G2 checkpoint abrogating dose of CBP501, cis-platin (MCF-7): >10 µM; G2 checkpoint abrogating dose of CBP501, cis-platin (NCI-H520): >10 µM; G2 checkpoint abrogating dose of CBP501, cis-platin (HT-29): <2 µM; G2 checkpoint abrogating dose of CBP501, cis-platin (SW620): >10 µM; G2 checkpoint abrogating dose of CBP501, cis-platin (HCT116): <2 µM; G2 checkpoint abrogating dose of CBP501, cis-platin (Panc1): >10 µM; G2 checkpoint abrogating dose of CBP501, cis-platin (SW900): >10 µM; Non specific toxicity (M checkpoint abrogation), dose up to which absent (Jurkat cells [5]; 0.5 μg/ml colchicine, unchanged percentage of M phase arrested cells): > 50 µM; M phase cell cycle arrest and/or non specific toxicity induced by colchicine (in words) (Jurkat cells [5]; FIG. 12): does not affect M phase cell cycle arrest and/or non specific toxicity induced by colchicine; Appearance of side effect when used with Colchicine (Jurkat cells [5]; dose with 5 μg/ml colchicine that produced Jurkat cell cycle disturbance, 24 hours): >25 µM; Intracellular accumulation of CDDP, CDDP combined with CBP501 vs CDDP alone [6]: 1.5 to 3 times
